Tests used:
Assay in all cases: Post-emergent Test III, herbicidal activity in wheat and barley
Assay type in all cases: in vivo
[1] = test system: HORSS: barley, including spring and winter (Hordeum vulgare); conditions: 21 days after application; for pest or weed control at 35 g/ha / pest or weed control at 70 g/ha: Hordeum vulgare, post-emergence, 504 h, read-out: Visual Gorowth Reduction (%) 21 days After Application HORSS; for pest or weed control at 35 g/ha: 35 g ai/ha; for pest or weed control at 70 g/ha: 70 g ai/ha; for GR20 HORSS: probit analysis, dose for 20 percent growth reduction (crop)
Summary of the method: (§1)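 GR20, GR50, GR80 and GR90 come from probit analysis of visual injury scores (0 = none, 100 = complete kill) taken 21 d after treatment. Foliar application was by track sprayer delivering 187 L/ha at five rates, from high down to 1/16×, onto greenhouse plants at the 2–3 leaf stage, with solvent-blank controls.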

[2] = test system: TRZSS: wheat, including spring and winter (Triticum aestivum); conditions: 21 days after application; for pest or weed control at 35 g/ha / pest or weed control at 70 g/ha: Triticum aestivum, post-emergence, 504 h, read-out: Visual Gorowth Reduction (%) 21 days After Application TRZSS; for pest or weed control at 35 g/ha: 35 g ai/ha; for pest or weed control at 70 g/ha: 70 g ai/ha; for GR20 TRZSS: probit analysis, dose for 20 percent growth reduction (crop)
Summary of the method: as §1

[3] = test system: MATSS: scented mayweed (Matricaria chamomilla), pineappleweed (Matricaria matricarioides); conditions: 21 days after application; for pest or weed control at 35 g/ha / pest or weed control at 70 g/ha: Matricaria chamomilla, post-emergence, 504 h, read-out: Visual Gorowth Reduction (%) 21 days After Application MATSS; for pest or weed control at 35 g/ha: 35 g ai/ha; for pest or weed control at 70 g/ha: 70 g ai/ha; for GR50 MATSS / GR80 MATSS: probit analysis; for GR50 MATSS: dose for 50 percent growth reduction; for GR80 MATSS: dose for 80 percent growth reduction
Summary of the method: as §1

[4] = test system: SASKR: Russian thistle (Salsola iberica); conditions: 21 days after application; for pest or weed control at 35 g/ha / pest or weed control at 70 g/ha: Salsola tragus, post-emergence, 504 h, read-out: Visual Gorowth Reduction (%) 21 days After Application SASKR; for pest or weed control at 35 g/ha: 35 g ai/ha; for pest or weed control at 70 g/ha: 70 g ai/ha; for GR50 SASKR / GR80 SASKR: probit analysis; for GR50 SASKR: dose for 50 percent growth reduction; for GR80 SASKR: dose for 80 percent growth reduction
Summary of the method: as §1

[5] = test system: VIOSS: wild pansy (Viola tricolor), field violet (Viola arvensis); conditions: 21 days after application; for pest or weed control at 35 g/ha / pest or weed control at 70 g/ha: Viola tricolor, post-emergence, 504 h, read-out: Visual Gorowth Reduction (%) 21 days After Application VIOSS; for pest or weed control at 35 g/ha: 35 g ai/ha; for pest or weed control at 70 g/ha: 70 g ai/ha; for GR50 VIOSS / GR80 VIOSS: probit analysis; for GR50 VIOSS: dose for 50 percent growth reduction; for GR80 VIOSS: dose for 80 percent growth reduction
Summary of the method: as §1

[6] = test system: VERPE: bird's-eye speedwell (veronica persica); conditions: 21 days after application; for pest or weed control at 35 g/ha / pest or weed control at 70 g/ha: Veronica persica, post-emergence, 504 h, read-out: Visual Gorowth Reduction (%) 21 days After Application VERPE; for pest or weed control at 35 g/ha: 35 g ai/ha; for pest or weed control at 70 g/ha: 70 g ai/ha; for GR50 VERPE / GR80 VERPE: probit analysis; for GR50 VERPE: dose for 50 percent growth reduction; for GR80 VERPE: dose for 80 percent growth reduction
Summary of the method: as §1

[7] = test system: KCHSC: kochia (Kochia scoparia); conditions: 21 days after application; for pest or weed control at 35 g/ha / pest or weed control at 70 g/ha: Bassia scoparia, post-emergence, 504 h, read-out: Visual Gorowth Reduction (%) 21 days After Application KCHSC; for pest or weed control at 35 g/ha: 35 g ai/ha; for pest or weed control at 70 g/ha: 70 g ai/ha; for GR50 KCHSC / GR80 KCHSC: probit analysis; for GR50 KCHSC: dose for 50 percent growth reduction; for GR80 KCHSC: dose for 80 percent growth reduction
Summary of the method: as §1

Row | SMILES | pest or weed control at 35 g/ha [1] | pest or weed control at 70 g/ha [1] | GR20 HORSS [1] | pest or weed control at 35 g/ha [2] | pest or weed control at 70 g/ha [2] | GR20 TRZSS [2] | pest or weed control at 35 g/ha [3] | pest or weed control at 70 g/ha [3] | GR50 MATSS [3] | GR80 MATSS [3] | pest or weed control at 35 g/ha [4] | pest or weed control at 70 g/ha [4] | GR50 SASKR [4] | GR80 SASKR [4] | pest or weed control at 35 g/ha [5] | pest or weed control at 70 g/ha [5] | GR50 VIOSS [5] | GR80 VIOSS [5] | pest or weed control at 35 g/ha [6] | pest or weed control at 70 g/ha [6] | further results
1 | COC(=O)c1nc(-c2ccc(Br)cc2F)c(F)c(N)c1Cl [Compound 52] | 85 to 94% | 95 to 100% | 1 g ai/ha | 85 to 94% | 85 to 94% | 1 g ai/ha | 0 to 29% | 60 to 74% | 62 g ai/ha | 91 g ai/ha | 60 to 74% | 75 to 84% | 4 g ai/ha | 84 g ai/ha | 95 to 100% | 95 to 100% | 12 g ai/ha | 19 g ai/ha | 75 to 84% | 95 to 100% | GR50 VERPE [6]: 20 g ai/ha; GR80 VERPE [6]: 37 g ai/ha; pest or weed control at 35 g/ha [7]: 75 to 84%; pest or weed control at 70 g/ha [7]: 85 to 94%; GR50 KCHSC [7]: 5 g ai/ha; GR80 KCHSC [7]: 38 g ai/ha
2 | COc1c(N)nc(-c2ccc(I)cc2F)nc1C(=O)O [Compound 72] | 45 to 59% | 60 to 74% | 5 g ai/ha | 75 to 84% | 85 to 94% | 1 g ai/ha | 0 to 29% | 30 to 44% | 126 g ai/ha | >140 g ai/ha | 30 to 44% | 60 to 74% | 48 g ai/ha | 106 g ai/ha | 30 to 44% | 45 to 59% | 67 g ai/ha | >140 g ai/ha | 85 to 94% | 95 to 100% | GR50 VERPE [6]: 1 g ai/ha; GR80 VERPE [6]: 8 g ai/ha; pest or weed control at 35 g/ha [7]: 60 to 74%; pest or weed control at 70 g/ha [7]: 60 to 74%; GR50 KCHSC [7]: 27 g ai/ha; GR80 KCHSC [7]: 105 g ai/ha
3 | COc1c(N)nc(-c2ccc(I)c(F)c2F)nc1C(=O)O [Compound 89] | 60 to 74% | 60 to 74% | 3 g ai/ha | 75 to 84% | 85 to 94% | 1 g ai/ha | 75 to 84% | 85 to 94% | 14 g ai/ha | 36 g ai/ha | 85 to 94% | 85 to 94% | 9 g ai/ha | 21 g ai/ha | 95 to 100% | 95 to 100% | 11 g ai/ha | 19 g ai/ha | 95 to 100% | 95 to 100% | GR50 VERPE [6]: 3 g ai/ha; GR80 VERPE [6]: 6 g ai/ha; pest or weed control at 35 g/ha [7]: 85 to 94%; pest or weed control at 70 g/ha [7]: 85 to 94%; GR50 KCHSC [7]: 12 g ai/ha; GR80 KCHSC [7]: 25 g ai/ha
4 | COC(=O)c1nc(-c2ccc(I)c(F)c2F)c(F)c(N)c1Cl [Compound 99] | 85 to 94% | 95 to 100% | 1 g ai/ha | 85 to 94% | 85 to 94% | 1 g ai/ha | 30 to 44% | 45 to 59% | 63 g ai/ha | >140 g ai/ha | 75 to 84% | 75 to 84% | 10 g ai/ha | 48 g ai/ha | 95 to 100% | 95 to 100% | 9 g ai/ha | 19 g ai/ha | 95 to 100% | 95 to 100% | GR50 VERPE [6]: 8 g ai/ha; GR80 VERPE [6]: 17 g ai/ha; pest or weed control at 35 g/ha [7]: 75 to 84%; pest or weed control at 70 g/ha [7]: 85 to 94%; GR50 KCHSC [7]: 9 g ai/ha; GR80 KCHSC [7]: 27 g ai/ha
5 | C#Cc1ccc(-c2nc(C(=O)O)c(Cl)c(N)c2F)c(F)c1 [Compound 108] | 30 to 44% | 45 to 59% | 16 g ai/ha | 75 to 84% | 75 to 84% | 6 g ai/ha | 30 to 44% | 60 to 74% | 58 g ai/ha | >140 g ai/ha | 0 to 29% | 30 to 44% | 136 g ai/ha | >140 g ai/ha | 30 to 44% | 30 to 44% | 85 g ai/ha | >140 g ai/ha | 60 to 74% | 75 to 84% | GR50 VERPE [6]: 22 g ai/ha; GR80 VERPE [6]: 67 g ai/ha; pest or weed control at 35 g/ha [7]: 0 to 29%; pest or weed control at 70 g/ha [7]: 0 to 29%; GR50 KCHSC [7]: >140 g ai/ha; GR80 KCHSC [7]: >140 g ai/ha

Reference: patent publication US9113629B2, “4-amino-6-(4-substituted-phenyl)-picolinates and 6-amino-2-(4-substituted-phenyl)-pyrimidine-4-carboxylates and their use as herbicides” (DOW AGROSCIENCES LLC, priority 2013, dated 2015)
